Literature values in US10213389B2 (priority 2005, dated 2019).

Question: With “1,4:3,6-dianhydro-D-glucitol dinitrate [Isosorbide dinitrate]” as the substance, how does the “solubility in acetone, chloroform, alcohol and ether” value (acetone, chloroform, alcohol, ether) read?
Answer: freely soluble

Question: What about the solubility in water (water, described as sparingly soluble) of the same substance?
Answer: 1.0 g/900 ml
